Experimental data from PubChem BioAssay (NCI).
Values joined by “and” are separate entries in the source; they are usually repeats but may differ in a detail not shown here. Equal entries are not always repeated.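 Results reflect a 48-hour exposure of cells in 96-well plates to compound at five concentrations. GI50: concentration for 50% inhibition of growth. At the TGI there is no net growth.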

How the values were obtained:
Assay in all cases: DTP human tumour cell line panel, 48 h
NCI-H23 lung = tested on: NCI-H23 lung
NCI-H460 lung = tested on: NCI-H460 lung
NCI-H522 lung = tested on: NCI-H522 lung
NCI/ADR-RES ovarian = tested on: NCI/ADR-RES ovarian
OVCAR-3 ovarian = tested on: OVCAR-3 ovarian
OVCAR-4 ovarian = tested on: OVCAR-4 ovarian
OVCAR-5 ovarian = tested on: OVCAR-5 ovarian
OVCAR-8 ovarian = tested on: OVCAR-8 ovarian
PC-3 prostate = tested on: PC-3 prostate
RPMI-8226 leukemia = tested on: RPMI-8226 leukemia
RXF 393 renal = tested on: RXF 393 renal
SF-268 CNS = tested on: SF-268 CNS
SF-295 CNS = tested on: SF-295 CNS
SF-539 CNS = tested on: SF-539 CNS
SK-MEL-2 melanoma = tested on: SK-MEL-2 melanoma
SK-MEL-28 melanoma = tested on: SK-MEL-28 melanoma
SK-MEL-5 melanoma = tested on: SK-MEL-5 melanoma
SK-OV-3 ovarian = tested on: SK-OV-3 ovarian
SN12C renal = tested on: SN12C renal
SNB-19 CNS = tested on: SNB-19 CNS
SNB-75 CNS = tested on: SNB-75 CNS
SR leukemia = tested on: SR leukemia
SW-620 colon = tested on: SW-620 colon
T-47D breast = tested on: T-47D breast
TK-10 renal = tested on: TK-10 renal
U251 CNS = tested on: U251 CNS
UACC-257 melanoma = tested on: UACC-257 melanoma
UACC-62 melanoma = tested on: UACC-62 melanoma
UO-31 renal = tested on: UO-31 renal

In the case of `O=C(NNc1nc2cc(F)cc(F)c2n2cccc12)c1cccnn1`, the GI50 (NCI-H23 lung) is reported as 575 nM, the TGI (NCI-H23 lung) is reported as greater than 100000 nM and the GI50 (NCI-H460 lung) is reported as 147 nM and 61 nM. For the same molecule, the TGI (NCI-H460 lung) was 3470 nM and 1280 nM, the GI50 (NCI-H522 lung) was 890 nM and 254 nM and the GI50 (NCI/ADR-RES ovarian) was 270 nM and 161 nM. The TGI (NCI/ADR-RES ovarian) was 3850 nM and 2190 nM, the GI50 (OVCAR-3 ovarian) was 234 nM and 128 nM and the TGI (OVCAR-3 ovarian) was 5190 nM and 10700 nM. For the same molecule, the GI50 (OVCAR-4 ovarian) was 212 nM, the TGI (OVCAR-4 ovarian) was 8520 nM and the GI50 (OVCAR-5 ovarian) was 847 nM and 1390 nM. The TGI (OVCAR-5 ovarian) was 30000 nM and 31600 nM, the GI50 (OVCAR-8 ovarian) was 362 nM and 246 nM and the TGI (OVCAR-8 ovarian) was 30000 nM and > 100000 nM. For the same molecule, the GI50 (PC-3 prostate) was 478 nM and 296 nM, the TGI (PC-3 prostate) was 30000 nM and > 100000 nM and the GI50 (RPMI-8226 leukemia) was 716 nM and 286 nM. The TGI (RPMI-8226 leukemia) was 30000 nM and 3060 nM, the GI50 (RXF 393 renal) was 865 nM and 242 nM and the TGI (RXF 393 renal) was 3610 nM and 2170 nM. For the same molecule, the GI50 (SF-268 CNS) was 359 nM and 209 nM, the TGI (SF-268 CNS) was 30000 nM and 11400 nM and the GI50 (SF-295 CNS) was 175 nM and 73.5 nM. The TGI (SF-295 CNS) was 4600 nM and 2140 nM, the GI50 (SF-539 CNS) was 396 nM and 314 nM and the TGI (SF-539 CNS) was 3870 nM and 3350 nM. The GI50 (SK-MEL-2 melanoma) was 1330 nM and 1170 nM, the TGI (SK-MEL-2 melanoma) was 19800 nM and 26200 nM and the GI50 (SK-MEL-28 melanoma) was 517 nM and 528 nM. For the same molecule, the TGI (SK-MEL-28 melanoma) was 12500 nM and 21600 nM, the GI50 (SK-MEL-5 melanoma) was 504 nM and 312 nM and the TGI (SK-MEL-5 melanoma) was 4950 nM and 2390 nM. The GI50 (SK-OV-3 ovarian) was 441 nM and 344 nM, the TGI (SK-OV-3 ovarian) was 6480 nM and 6700 nM and the GI50 (SN12C renal) was 500 nM and 554 nM. The TGI (SN12C renal) was 16400 nM and 19900 nM, the GI50 (SNB-19 CNS) was 409 nM and 337 nM and the TGI (SNB-75 CNS) was 17900 nM and 7790 nM. The GI50 (SR leukemia) was 147 nM and 43.1 nM, the GI50 (SW-620 colon) was 363 nM and 289 nM and the TGI (SW-620 colon) was 21100 nM and > 100000 nM. For the same molecule, the GI50 (T-47D breast) was 632 nM and 322 nM, the TGI (T-47D breast) was 11300 nM and 4180 nM and the GI50 (TK-10 renal) was 792 nM and 317 nM. For the same molecule, the TGI (TK-10 renal) was 20800 nM and 11300 nM, the GI50 (U251 CNS) was 241 nM and 113 nM and the TGI (U251 CNS) was 13300 nM and 4420 nM. The GI50 (UACC-257 melanoma) was 868 nM and 395 nM, the TGI (UACC-257 melanoma) was 3410 nM and 3630 nM and the GI50 (UACC-62 melanoma) was 305 nM and 329 nM. The GI50 (UO-31 renal) was 118 nM and 51.9 nM and the TGI (UO-31 renal) was 3630 nM and 1770 nM.
